This note sets out measurements from US20120165403A1, “METHODS OF INHIBITING THE ACTIVITY OF HSP90 AND/OR ARYL HYDROCARBON RECEPTOR” (UNIVERSITY OF ROCHESTER, priority 2004, published 2012).

In the series the test system is TCDD-mediated CYP1A1 gene induction. As to the kind of experiment: CYP1A1 expression by Western blot in Hepa1c1c7 cells. Format: cell-based, mouse. The method, then: Mouse hepatoma cells, Hepa1c1c7 (Hepa), and BP^rCl cells were maintained in modified Eagle's medium (Sigma) supplemented with 10% heat-inactivated fetal bovine serum, sodium pyruvate, L-glutamine, sodium bicarbonate, and Gentamicin (MEM+), at 37° C. in a humid atmosphere with 5% CO2. BP^rCl cells are a derivative of Hepa1c1c7 cells that lack ARNT protein expression and function (Probst et al., Mol. Pharmacol. 44:511-518 (1993), which is hereby incorporated by reference in its entirety). Upon reaching 90% confluency, cells were harvested and homogenized in HEDG buffer (25 mM HEPES, 1.5 mM Na2EDTA, 1 mM dithiothreitol, 10% (v/v) glycerol, pH 7.6) containing protease inhibitors (Roche Applied Science complete mini cocktail tablet, Indianapolis, Ind.). Both Hepa and BP^rC1 cytosols were prepared by centrifugation of the homogenate at 100,000 g for 45 min.
Hepa cells were plated onto 6-well plates at a density of 5×10^5 cells/well and incubated overnight at 37° C. Cells were treated with vehicle (DMSO), TCDD (150 pM), EGCG, or EGCG in the presence of TCDD (150 pM) for 4 hrs. Cells were lysed (0.2% Triton, 5 mM EDTA in PBS) and total protein quantified using the Coomassie Plus Protein Assay Reagent (Pierce, Rockford, Ill.). Protein (30 μg) was separated by SDS-PAGE (7.5% acrylamide resolving gel) and transferred to PVDF membrane (Millipore, Bedford, Mass.). […]

Consider `O=C(O[C@@H]1Cc2c(O)cc(O)cc2O[C@@H]1c1cc(O)c(O)c(O)c1)c1cc(O)c(O)c(O)c1` [EGCG, epigallocatechin gallate], for which the “CYP1A1 gene induction, treatment alone” value (EGCG alone, Western blot) is given as “no effect on CYP1A1 gene induction”. The “inhibition of TCDD-mediated CYP1A1 gene induction” value (simultaneously with 150 pM TCDD) is “concentration-dependent inhibition”.
